According to ChEMBL document CHEMBL4819133, “Exploiting the HSP60/10 chaperonin system as a chemotherapeutic target for colorectal cancer” (Bioorg Med Chem, 2021):
The source made the active and inactive calls. No cut-off for these calls is given here.

How the values were obtained:
HCT-116 [1] = assay: Cytotoxicity against human HCT-116 cells assessed as reduction in cell viability measured after 48 hrs by AlamarBlue assay; type: functional, cell-based; settings: HCT-116, 48 h
DLD-1 [2] = assay: Cytotoxicity against human DLD-1 cells assessed as reduction in cell viability measured after 48 hrs by AlamarBlue assay; type: functional, cell-based; settings: DLD-1, 48 h
HT-29 [3] = assay: Cytotoxicity against human HT-29 cells assessed as reduction in cell viability measured after 48 hrs by AlamarBlue assay; type: functional, cell-based; settings: HT-29, 48 h
FHC = assay: Cytotoxicity against human FHC cells assessed as reduction in cell viability measured after 48 hrs by AlamarBlue assay; type: cell-based
[4] = Cytotoxicity against human FHs74Int cells assessed as reduction in cell viability measured after 48 hrs by AlamarBlue assay; type: cell-based
[5] = Cytotoxicity against human THLE-3 cells assessed as reduction in cell viability measured after 48 hrs by AlamarBlue assay; type: cell-based; settings: thle-3, 48 h
HEK293 = assay: Cytotoxicity against human HEK293 cells assessed as reduction in cell viability measured after 48 hrs by AlamarBlue assay; type: cell-based; settings: hek293, 48 h
HCT-116 [6] = assay: Cytostatic activity in human HCT-116 cells assessed as viable cells at 100 uM incubated for 48 hrs by AnnexinV/PI staining based flow cytometry; type: functional, cell-based
E. coli GroEL/ES [7] = molecular target: T1, E. coli GroEL/ES (Escherichia coli, UniProt P0A6F5); assay: Inhibition of Escherichia coli GroEL/ES-mediated refolding of the denatured malate dehydrogenase; type: protein-complex assay
T1 sequence (P0A6F5 whole entry, looked up): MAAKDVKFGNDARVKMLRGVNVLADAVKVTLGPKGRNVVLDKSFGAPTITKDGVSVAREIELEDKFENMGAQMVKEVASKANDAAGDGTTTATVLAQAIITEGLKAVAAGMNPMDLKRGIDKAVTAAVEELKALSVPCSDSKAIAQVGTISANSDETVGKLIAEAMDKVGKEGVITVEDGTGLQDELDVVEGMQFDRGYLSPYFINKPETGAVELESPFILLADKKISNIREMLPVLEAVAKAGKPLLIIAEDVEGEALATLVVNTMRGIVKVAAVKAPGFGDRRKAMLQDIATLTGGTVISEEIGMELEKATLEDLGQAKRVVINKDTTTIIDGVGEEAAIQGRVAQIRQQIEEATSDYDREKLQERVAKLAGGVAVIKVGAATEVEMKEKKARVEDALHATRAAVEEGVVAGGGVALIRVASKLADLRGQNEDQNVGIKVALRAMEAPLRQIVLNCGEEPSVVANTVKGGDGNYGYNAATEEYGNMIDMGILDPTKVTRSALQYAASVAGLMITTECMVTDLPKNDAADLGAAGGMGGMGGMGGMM

E. coli GroEL/ES [8] = molecular target: T1, E. coli GroEL/ES; assay: Inhibition of Escherichia coli GroEL/ES-mediated refolding of the denatured rhodanese; type: protein-complex assay
HSP60/HSP10 = HSP60/HSP10 (Homo sapiens, UniProt P10809); assay: Inhibition of human mitochondrial HSP60/10-mediated refolding of the denatured malate dehydrogenase; type: mitochondria, Mitochondria
HSP60/HSP10, sequence (P10809 whole entry): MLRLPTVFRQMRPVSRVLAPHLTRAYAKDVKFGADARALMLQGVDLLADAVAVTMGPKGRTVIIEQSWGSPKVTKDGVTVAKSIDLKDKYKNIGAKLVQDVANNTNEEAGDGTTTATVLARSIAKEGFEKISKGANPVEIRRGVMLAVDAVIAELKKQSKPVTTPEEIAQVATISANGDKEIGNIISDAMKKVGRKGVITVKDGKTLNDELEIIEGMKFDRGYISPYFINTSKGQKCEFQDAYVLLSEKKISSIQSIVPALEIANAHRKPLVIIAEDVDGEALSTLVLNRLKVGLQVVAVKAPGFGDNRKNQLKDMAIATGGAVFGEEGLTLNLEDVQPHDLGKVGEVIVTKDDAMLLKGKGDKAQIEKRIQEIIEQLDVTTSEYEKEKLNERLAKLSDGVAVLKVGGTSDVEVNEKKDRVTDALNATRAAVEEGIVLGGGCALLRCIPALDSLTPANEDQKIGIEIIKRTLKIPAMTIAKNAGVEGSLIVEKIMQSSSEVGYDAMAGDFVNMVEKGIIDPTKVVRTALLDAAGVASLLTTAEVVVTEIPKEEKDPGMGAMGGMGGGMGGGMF
HSP60/HSP10, sequence (P61604 whole entry, further chain): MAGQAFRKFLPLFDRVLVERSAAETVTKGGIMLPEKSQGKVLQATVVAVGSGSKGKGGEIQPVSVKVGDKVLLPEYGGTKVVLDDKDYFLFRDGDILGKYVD

DLD-1 [9] = assay: Inhibition of clonogenicity in human DLD-1 cells assessed as reduction in number of colony formation incubated for 72 hrs followed by culturing in fresh compound-free medium for 7 days by crystal violet staining based analysis; type: functional, cell-based
HT-29 [10] = assay: Inhibition of clonogenicity in human HT-29 cells assessed as reduction in number of colony formation incubated for 72 hrs followed by culturing in fresh compound-free medium for 7 days by crystal violet staining based analysis; type: functional, cell-based
HCT-116 [11] = assay: Inhibition of clonogenicity in human HCT-116 cells assessed as reduction in number of colony formation incubated for 72 hrs followed by culturing in fresh compound-free medium for 7 days by crystal violet staining based analysis; type: functional, cell-based
DLD-1 [12] = assay: Inhibition of clonogenicity in human DLD-1 cells assessed as reduction in size of colony incubated for 72 hrs followed by culturing in fresh compound-free medium for 7 days by crystal violet staining based analysis; type: functional, cell-based
HT-29 [13] = assay: Inhibition of clonogenicity in human HT-29 cells assessed as reduction in size of colony incubated for 72 hrs followed by culturing in fresh compound-free medium for 7 days by crystal violet staining based analysis; type: functional, cell-based
HCT-116 [14] = assay: Inhibition of clonogenicity in human HCT-116 cells assessed as reduction in size of colony incubated for 72 hrs followed by culturing in fresh compound-free medium for 7 days by crystal violet staining based analysis; type: functional, cell-based
HCT-116 [15] = assay: Inhibition of cell migration in human HCT-116 cells measured at 72 hrs by scratch wound healing assay based phase contrast microscopy; type: functional; settings: HCT-116, 72 h
HCT-116 [16] = assay: Inhibition of cell migration in human HCT-116 cells at 0.14 to 100 uM measured for 72 hrs by scratch wound healing assay based phase contrast microscopy; type: functional; settings: dose 0.14-100 µM
DLD-1 [17] = assay: Inhibition of clonogenicity in human DLD-1 cells assessed as reduction in colony formation at 50 uM incubated for 72 hrs followed by culturing in fresh compound-free medium for 7 days by crystal violet staining based analysis; type: functional
HCT-116 [18] = assay: Inhibition of clonogenicity in human HCT-116 cells assessed as reduction in colony formation at 50 uM incubated for 72 hrs followed by culturing in fresh compound-free medium for 7 days by crystal violet staining based analysis; type: functional
HT-29 [19] = assay: Inhibition of clonogenicity in human HT-29 cells assessed as reduction in colony formation at 50 uM incubated for 72 hrs followed by culturing in fresh compound-free medium for 7 days by crystal violet staining based analysis; type: functional
HCT-116 [20] = assay: Induction of apoptosis in human HCT-116 cells assessed as compact cell monolayer at 100 uM measured for 72 hrs by phase contrast microscopy; type: functional, cell-based
[21] = Inhibition of refolded MDH (unknown origin)-mediated oxidation of NADPH in presence of mesoxalic acid treated with compound after refolding of the denatured enzyme; set-up: species or system Homo sapiens
[22] = molecular target: T2, Thiosulfate sulfurtransferase (Homo sapiens, UniProt Q16762); assay: Inhibition of refolded Rhodanese (unknown origin)-mediated conversion of cyanide to thiocyanate treated with compound after refolding of the denatured enzyme
T2 sequence (Q16762 whole entry): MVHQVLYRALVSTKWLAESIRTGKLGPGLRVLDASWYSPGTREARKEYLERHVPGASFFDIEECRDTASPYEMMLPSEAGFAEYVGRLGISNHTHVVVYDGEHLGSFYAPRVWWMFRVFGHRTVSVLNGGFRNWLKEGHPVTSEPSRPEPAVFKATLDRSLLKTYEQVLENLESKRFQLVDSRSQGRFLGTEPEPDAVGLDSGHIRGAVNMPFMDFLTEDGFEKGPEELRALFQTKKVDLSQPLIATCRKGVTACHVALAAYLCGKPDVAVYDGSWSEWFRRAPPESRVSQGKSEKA

## COc1ccc(S(=O)(=O)Nc2ccc3oc(-c4ccc(NC(=O)c5ccc(Cl)s5)cc4)nc3c2)cc1
HCT-116 [1]
  EC50: 5.4 µM
DLD-1 [2]
  EC50: 4.6 µM
HT-29 [3]
  EC50: 1.9 µM
FHC
  CC50: > 100 µM
[4]
  CC50: > 100 µM
[5]
  CC50: 57 µM
HEK293
  CC50: 15 µM
HCT-116 [6]
  Activity: Active
E. coli GroEL/ES [7]
  IC50: 18 µM
E. coli GroEL/ES [8]
  IC50: 15 µM
HSP60/HSP10
  IC50: 61 µM
DLD-1 [9]
  EC50: > 50 µM
HT-29 [10]
  EC50: 2.3 µM
HCT-116 [11]
  EC50: 2.7 µM
DLD-1 [12]
  EC50: 11 µM
HT-29 [13]
  EC50: 0.71 µM
HCT-116 [14]
  EC50: 1.1 µM
HCT-116 [15]
  EC50: 5.7 µM
HCT-116 [16]
  inhibition: Active
DLD-1 [17]
  inhibition: Active
HCT-116 [18]
  inhibition: Active
HT-29 [19]
  inhibition: Active
HCT-116 [20]
  Activity: inactive
[21]
  IC50: > 62.5 µM
[22]
  IC50: > 100 µM
